This is an account of results in publication PMC12040169 (PLOS Biology, 2025).

The structures appear in SMILES notation.

One data set in a line: in vitro. The settings on record: human, hela cells, % viability.
One may read the viability as a read-out of living cells in per cent, often relative to untreated cells. Turning to `CN1CCC(N2CCC[C@H]2c2nc(-c3ccnc(N4CCOCC4)c3)no2)CC1` [CBK288880], the viability at 28.5 h, 10 µM turned out to be 94.4%.

Turning to `O=C(O)c1sc2ncccc2c1NS(=O)(=O)c1ccc(C(F)(F)F)cc1[N+](=O)[O-]` [CBK050647], the viability at 28.5 h, 10 µM is 118%.

Consider `CCOC(=O)c1c(NC(=O)c2nn3c(C(F)(F)F)cc(-c4cccs4)nc3c2Cl)sc2c1CCCC2` [CBK262539], for which the viability at 28.5 h, 10 µM is 95.1%.

Take `CS(=O)(=O)Nc1c[nH]nc1C1CCCN(c2cccc(F)c2C#N)C1` (stereo not drawn) [CBK305444]: the viability at 28.5 h, 10 µM was determined as 95.2%.

As to `O=C(c1ccco1)N1CCN(C(=O)c2ccco2)CC1` [CBK068272], the viability at 28.5 h, 10 µM was 86.4%.

For `COc1ccc2cc(/C=N/NC(=O)CN3CCCCC3)c(Cl)nc2c1` [CBK018181], the viability at 28.5 h, 10 µM stood at 95.3%.

Turning to `CCCNc1nc(-c2cccc(O)c2)cn2ccnc12` [CBK066395], the viability at 28.5 h, 10 µM was found to be 93.5%.

For `COc1ccccc1NCC(=O)n1nc(C)cc1C` [CBK263879], the viability at 28.5 h, 10 µM came out at 97.8%.

Consider `CC(CNS(=O)(=O)c1cc(Cl)ccc1Cl)CN(C)C` (stereo not drawn) [CBK266808], for which the viability at 28.5 h, 10 µM was found to be 108%.

As for `CCOC(=O)c1ccc(NC(=O)c2ccccc2-c2nc(-c3ccccc3Cl)no2)cc1` [CBK268919], the viability at 28.5 h, 10 µM is 111%.

Turning to `NNC(=O)c1ccc(Oc2ccc(C(=O)NN)cc2)cc1` [CBK260995], the viability at 28.5 h, 10 µM worked out at 85.7%.

With `CSCCC(NC(=O)c1ccc(C#CC(C)(C)O)cc1)C(=O)O` (stereo not drawn) [CBK276698], the viability at 28.5 h, 10 µM was 93.9%.

`CC(C)(C)OC(=O)N1CCC(CNS(=O)(=O)c2cc(Cl)sc2Cl)CC1` [CBK086018]: the viability at 28.5 h, 10 µM is 114%.

Turning to `Cc1ccc(S(=O)(=O)N(CCO)CC(O)Cn2c3ccc(Cl)cc3c3cc(Cl)ccc32)cc1` (stereo not drawn) [CBK263392], the viability at 28.5 h, 10 µM came out at 97.6%.

`Cc1ccc2oc(-c3cccc(NC(=O)c4ccccc4C(=O)O)c3)nc2c1` [CBK300481]: the viability at 28.5 h, 10 µM came out at 109%.

Consider `CC1=C(C)CC(C(=O)Nc2ccc3c(c2)oc2ccccc23)C(C(=O)O)C1` (stereo not drawn) [CBK263533], for which the viability at 28.5 h, 10 µM amounted to 102%.

With `O=C(O)c1cccc(N(CCO)CCO)c1` [CBK262419], the viability at 28.5 h, 10 µM turned out to be 93.6%.

In the case of `CC(=O)Nc1ccc(/N=C/c2ccc(Cl)cc2)cc1` [CBK015166], the viability at 28.5 h, 10 µM worked out at 92.3%.

Regarding `O=C(O)CCC(=O)NNC(=O)c1ccccc1[N+](=O)[O-]` [CBK261079], the viability at 28.5 h, 10 µM was found to be 95.8%.

Turning to `Cc1nc(C2CCCC2)cc([C@H]2CN3CC[C@H]2C[C@@H]3CNS(C)(=O)=O)n1` [CBK289121], the viability at 28.5 h, 10 µM was determined as 87.6%.

On to `Cc1cc(-c2cn(C)nc2C2CCCCN2C(=O)C2CCC2)on1` (stereo not drawn) [CBK283403], for which the viability at 28.5 h, 10 µM was 83.7%.

Turning to `Cc1cc(O)nc(-n2nc(C)cc2NC(=O)c2ccccc2)n1` [CBK287653], the viability at 28.5 h, 10 µM worked out at 101%.

On to `O=S(=O)(c1ccc(C2=CSC3=NCCN23)cc1)N1CCOCC1` [CBK019381], for which the viability at 28.5 h, 10 µM was 101%.

Consider `Cc1ccc(/N=N/N(CC(O)C(O)C(O)CO)c2ccc(C)c(C)c2)cc1C` (stereo not drawn) [CBK262705], for which the viability at 28.5 h, 10 µM was 90%.

Consider `CN1C(=O)CC2(C1=O)C(=O)N(CCN1C(=O)c3ccccc3C1=O)c1ccc(F)cc12` (stereo not drawn) [CBK075451], for which the viability at 28.5 h, 10 µM was determined as 89.5%.

On to `CN(c1cccc(C#N)c1)C1CCN(c2nc3c(cnn3C)c(=O)[nH]2)C1` (stereo not drawn) [CBK305462], for which the viability at 28.5 h, 10 µM worked out at 91.8%.

Regarding `O=C(NCC(=O)N1CCc2ccccc2C1)C1CCCCC1` [CBK306049], the viability at 28.5 h, 10 µM is 107%.

As for `O=C(NCc1csc(-c2ccccc2)n1)C1CC=CCC1` (stereo not drawn) [CBK092348], the viability at 28.5 h, 10 µM came to 94.4%.

Take `Cc1ccc(Cc2c(C)[nH]c3[nH]n(-c4ccccc4)c(=O)c3c2=O)cc1` [CBK270273]: the viability at 28.5 h, 10 µM is 83.7%.

As for `Cc1nn(C)cc1-c1cncn1CC(C)N1CCCCC1` (stereo not drawn) [CBK281781], the viability at 28.5 h, 10 µM is 92.1%.

Regarding `O=C(NC1Cc2ccccc2C1)c1ccc2ccccc2n1` [CBK200355], the viability at 28.5 h, 10 µM was 81.8%.

Take `Cc1ccc(S(=O)(=O)N[C@H]2CO[C@H]3[C@@H]2OC[C@H]3O)cc1` [CBK289477]: the viability at 28.5 h, 10 µM was 98.4%.

As to `CCN(CC)CCCNC(=O)N1CCCC(CO)C1` (stereo not drawn) [CBK156061], the viability at 28.5 h, 10 µM is 103%.

As to `NC(=O)c1cccc(-c2nc(-c3cccs3)cnc2N)c1` [CBK064117], the viability at 28.5 h, 10 µM was 89.7%.

As to `O=C(OCc1cccc(C(=O)c2ccccc2)c1)c1ccc(-c2nnc(-c3ccccc3)o2)cc1` [CBK267852], the viability at 28.5 h, 10 µM is 104%.

For the compound `COCCCNC(=O)Cn1cnc2sc(C)cc2c1=O` [CBK071899], the viability at 28.5 h, 10 µM turned out to be 102%.

In the case of `COc1cc(Cl)cc(CNCCO)c1OC(C)C` [CBK269196C], the viability at 28.5 h, 10 µM was 86.7%.

Take `Cc1nc([N+](=O)[O-])c(NCCO)n1Cc1ccccc1` [CBK261422]: the viability at 28.5 h, 10 µM is 88.5%.

As to `O=C(NC(=S)Nc1cc(-c2nc3ccccc3[nH]2)ccc1Cl)c1ccccc1[N+](=O)[O-]` [CBK268649], the viability at 28.5 h, 10 µM amounted to 93.7%.

For `Cc1ccc(NC(=O)C(=O)NCCCN2CCOCC2)cc1C` [CBK264836], the viability at 28.5 h, 10 µM was 106%.

Turning to `c1ccc2c(c1)OCC(c1nn3c(-c4ccncc4)nnc3s1)O2` (stereo not drawn) [CBK288560], the viability at 28.5 h, 10 µM worked out at 107%.

In the case of `O=C(CCc1cccnc1)Nc1cnc(-c2cccc(OC(F)(F)F)c2)c(-c2cccnc2)n1` [CBK036811], the viability at 28.5 h, 10 µM came to 94.5%.

For the compound `Cc1nc2ccccc2c(O)c1CN1CCN(C)CC1` [CBK027922], the viability at 28.5 h, 10 µM is 119%.

Turning to `O=C1c2ccc(Oc3ccc(Oc4ccc5c(c4)C(=O)N(c4cccnc4)C5=O)cc3)cc2C(=O)N1c1cccnc1` [CBK262195], the viability at 28.5 h, 10 µM is 95.7%.

For `Cc1c(-c2cc(-c3cnn(C)c3C)[nH]n2)cnn1C` [CBK288013], the viability at 28.5 h, 10 µM is 76%.

`Oc1cccc(Sc2nc3ccccc3nc2N2CCCC2)c1` [CBK093753]: the viability at 28.5 h, 10 µM worked out at 88.5%.

For `O=C(N[C@H]1COC(=O)N1)OCc1ccccc1` [CBK007606], the viability at 28.5 h, 10 µM turned out to be 114%.

On to `CN1CCN(C(=O)c2[nH]c3ccccc3c2NS(=O)(=O)Cc2ccccc2[N+](=O)[O-])CC1` [CBK050059], for which the viability at 28.5 h, 10 µM stood at 92.6%.

Consider `COc1cc(C(=O)NCC(=O)O)cc(Cl)c1OCC(C)C` [CBK297485], for which the viability at 28.5 h, 10 µM came to 80.8%.

Regarding `COc1cc(CNn2cnnc2S)ccc1OCC(=O)NC(C)(C)C` [CBK266429], the viability at 28.5 h, 10 µM was 92.5%.

For the compound `CCN1CCN(c2ccc(C(=O)OC)cc2NC(=O)c2ccccc2C)CC1` [CBK269902], the viability at 28.5 h, 10 µM turned out to be 92.9%.

`CC(C)Nc1cncc(OCc2cccnc2)n1` [CBK115879]: the viability at 28.5 h, 10 µM is 102%.

For `O=C(c1ccc(OC(F)(F)F)cc1)N1CCC2(CCN(Cc3ccccc3)CC2)C1` [CBK136746], the viability at 28.5 h, 10 µM was 101%.

In the case of `COc1ccc(-c2ccnc(N[C@H]3CO[C@H]4[C@@H]3OC[C@@H]4NC(=O)C3CCCCC3)n2)cc1` [CBK289527], the viability at 28.5 h, 10 µM was 88.9%.

As for `Cc1ccc(-c2noc(CSc3nnc(-c4ccncc4)n3-c3ccc(C)cc3)n2)cc1` [CBK268879], the viability at 28.5 h, 10 µM came out at 101%.

Turning to `CCCC(=O)NCc1ccc(-c2cc(CN(C)C)n(C)n2)cc1` [CBK282007], the viability at 28.5 h, 10 µM amounted to 98.4%.

On to `O=C(CC1NC(=O)N(C2CCCCC2)C1=O)Nc1cccc(CCc2ccncc2)c1` (stereo not drawn) [CBK285563], for which the viability at 28.5 h, 10 µM is 93.1%.

Turning to `COc1ccc(C)cc1NC(=O)c1cnc2n(c1=O)CCS2` [CBK287383], the viability at 28.5 h, 10 µM was found to be 108%.

For `Cc1cc(S(=O)(=O)Nc2ccc3[nH]ccc3c2)c(C)o1` [CBK155743], the viability at 28.5 h, 10 µM came to 71.4%.

On to `O=C(CC1S/C(=N/N=C/c2ccc(-c3ccc(Cl)c([N+](=O)[O-])c3)o2)NC1=O)Nc1ccccc1` (stereo not drawn) [CBK264473], for which the viability at 28.5 h, 10 µM was 92.9%.

On to `O=c1[nH]c(=O)c2cc(S(=O)(=O)Nc3cccc(CCc4ccccn4)c3)ccc2[nH]1` [CBK286389], for which the viability at 28.5 h, 10 µM is 97.9%.

`O=C(c1cccnc1)N1CCN(C(=O)c2ccco2)CC1` [CBK072684]: the viability at 28.5 h, 10 µM stood at 94.3%.

Take `NCCNC(=O)c1cc(-c2ccc(Cl)cc2)[nH]n1` [CBK160975]: the viability at 28.5 h, 10 µM is 110%.

For the compound `CCCCC(=O)N1CC(n2nc(-c3ccccc3)ccc2=O)C1` [CBK284615], the viability at 28.5 h, 10 µM was found to be 95.6%.

On to `COc1cc(CNC(=O)N2CCN(CCc3ccccc3)CC2)cc(OC)c1OC` [CBK158910], for which the viability at 28.5 h, 10 µM turned out to be 91.8%.

Turning to `O=C(O)C1CCCN(C(=O)COc2cc3oc(=O)cc(-c4ccccc4)c3cc2Cl)C1` (stereo not drawn) [CBK286753], the viability at 28.5 h, 10 µM was found to be 90.9%.

On to `Cn1cnc2ccc(NC(=O)CC3CCN(C(=O)CC4CCCCC4)CC3)cc21` [CBK285961], for which the viability at 28.5 h, 10 µM came out at 84.1%.

`COc1cc([C@@]23CC[C@@H](NC(=O)Nc4cc(F)ccc4F)C[C@@H]2N(C)CC3)ccc1OC(F)F` [CBK073834]: the viability at 28.5 h, 10 µM came out at 106%.

With `Cn1c(=O)c2c(nc(NCCOCCO)n2C)n(C)c1=O` [CBK288164], the viability at 28.5 h, 10 µM turned out to be 98.2%.

Turning to `COCCC(=O)N1C[C@@H]2C[C@H](C1)c1ccc(NC(=O)Nc3cccc(F)c3)c(=O)n1C2` [CBK289075], the viability at 28.5 h, 10 µM was 84.6%.

Consider `CCOc1ccc(C2CCCN2S(=O)(=O)c2c[nH]c(=O)[nH]c2=O)cc1` (stereo not drawn) [CBK285806], for which the viability at 28.5 h, 10 µM came to 92.6%.

Regarding `O=C(O)COc1ccc(Br)cc1C(c1c[nH]c2ccccc12)c1c[nH]c2ccccc12` [CBK265720], the viability at 28.5 h, 10 µM was 94.6%.

As to `O=C(c1nccs1)C1CCN(C(=O)Cc2ccccc2F)CC1` [CBK284161], the viability at 28.5 h, 10 µM is 87.3%.

Regarding `N#CC1=C(Nc2ccccc2)Oc2cc(N)ccc2C1c1cccnc1` (stereo not drawn) [CBK269435], the viability at 28.5 h, 10 µM was found to be 100%.

Regarding `CC1(C)CC(=O)C2=C(C1)c1onc(N)c1C2Cc1ccccc1` (stereo not drawn) [CBK269206], the viability at 28.5 h, 10 µM worked out at 110%.

As to `O=C(CSc1nnc(-c2ccncc2)[nH]1)c1ccc(O)cc1O` [CBK264353], the viability at 28.5 h, 10 µM was 102%.

As for `COc1ccc(OC)c(S(=O)(=O)n2ccc3c(N4CCNCC4)nccc32)c1` [CBK059067C], the viability at 28.5 h, 10 µM amounted to 101%.

Staying with this data set, now noted: human, hela cells, % viability, bulk resorufin, single well.
On to `c1ccc(-c2ccc3c(c2)OC2(CCNCC2)O3)cc1` [CBK085501], for which the viability at 28.5 h, 10 µM came out at 103%.
